The test system of data set [1] is MDA-MB-231. As to the kind of experiment: Antiproliferative activity against human MDA-MB-231 cells assessed as inhibition of cell viability at 10 uM after 48 hrs by MTT assay relative to control. The format is functional.
In data set [2] the test system is HCT-116. As to the kind of experiment: Antiproliferative activity against human HCT116 cells assessed as inhibition of cell viability at 10 uM after 48 hrs by MTT assay relative to control. The data set is classed as functional. Background: Tetrazolium dyes change colour on reduction, which living cells bring about.
Data set [3] relates to SW480. Kind of data set: Antiproliferative activity against human SW480 cells assessed as inhibition of cell viability at 10 uM after 48 hrs by MTT assay relative to control. The data set is classed as functional.
In data set [4] the test system is SW480. Kind of data set: Antiproliferative activity against human SW480 cells assessed as inhibition of cell viability after 48 hrs by MTT assay. The data set is classed as functional, cell-based. Conditions: SW480, 48 h.
For data set [5], the system named is L3.6pl. As to the kind of experiment: Antiproliferative activity against human L3.6 cells assessed as inhibition of cell viability at 10 uM after 48 hrs by MTT assay relative to control. The format is functional.
Data set [6] can be described thus: Lipophilicity, log P of the compound. The format is physicochemical. Conditions: octanol/water.
Data set [7] deals with HCT-116. As to the kind of experiment: Antiproliferative activity against human HCT-116 cells assessed as inhibition of cell viability after 48 hrs by MTT assay. Conditions: HCT-116, 48 h. The data set is classed as functional, cell-based.
Data set [8] deals with MDA-MB-231. As to the kind of experiment: Antiproliferative activity against human MDA-MB-231 cells assessed as inhibition of cell viability after 48 hrs by MTT assay. The data set is classed as functional, cell-based. Conditions: MDA-MB-231, 48 h.

Consider `COc1cc(NC(=O)c2cccc(S(N)(=O)=O)c2)cc(OC)c1OC`, for which the inhibition – broadly, the drop in the measured response relative to a control, in per cent – at 10 µM was 59.4% in data set [1], 57.7% in data set [2], 26.9% in data set [3] and 19.5% in data set [5]. Further, the IC50 – broadly, the concentration needed to halve the response being measured – in data set [4] was > 20 µM; in data set [7], 10.7 µM; in data set [8], 12.7 µM. For the same compound, in data set [6], the logP (in general, the decadic logarithm of the partition coefficient of the neutral form, usually between octanol and water) is 0.79.
Consider `C=CC(=O)NS(=O)(=O)c1cc(C(=O)Nc2cc(OC)c(OC)c(OC)c2)ccc1Cl`, for which the inhibition at 10 µM in data set [1] is 2.82%; in data set [2] it was 24.2%; in data set [3] it was 28.9%; in data set [5], -12.9%.
For `NS(=O)(=O)c1ccc(O)c(C(=O)Nc2ccc([N+](=O)[O-])cc2Cl)c1` the same measures were 48.2%, 64%, -8.3% and 44.7%.
The matching figures for `COc1ccc(NC(=O)c2cccc(S(N)(=O)=O)c2)cc1`: 32.3%, 42.7%, 38.4% and 23.9%.
The matching figures for `COc1cc(NC(=O)c2ccc(Cl)c(S(N)(=O)=O)c2)cc(OC)c1OC`: 93.3%, 87.9%, 82.2% and 42.1%.
As for `COc1cc(OC)cc(C(=O)NS(=O)(=O)c2cc(C(=O)Nc3cc(OC)c(OC)c(OC)c3)ccc2Cl)c1`, the inhibition at 10 µM in data set [1] is 4.11%; in data set [2], -2.37%; in data set [3] it was 16.1%; in data set [5], -13.1%.
The matching figures for `COc1cc(NC(=O)c2cccc(S(N)(=O)=O)c2)cc(OC)c1`: 39.6%, 47.1%, 40.4% and 22.2%.
For `COc1cc(NC(=O)c2ccc(Cl)c(S(=O)(=O)NC(=O)c3cccc([N+](=O)[O-])c3)c2)cc(OC)c1OC` the same measures were 14.3%, 3.74%, 12.1% and -6.13%.
As to `NS(=O)(=O)c1cc(C(=O)Nc2ccc(F)c(Cl)c2)ccc1Cl`, the inhibition at 10 µM in data set [1] amounted to 41.5%; in data set [2] it was 47.5%; in data set [3], 49.1%; in data set [5], 30.2%.
The matching figures for `C=C(C)C(=O)NS(=O)(=O)c1cc(C(=O)Nc2cc(OC)c(OC)c(OC)c2)ccc1Cl`: 4.84%, 30%, 22.3% and -11.3%.
Regarding `CC(C)(C)OC(=O)c1ccc(NC(=O)c2cccc(S(N)(=O)=O)c2)cc1`, the inhibition at 10 µM in data set [1] is 91.1%; in data set [2] it was 79.3%; in data set [3], 55.4%; in data set [5], 31.2%. In addition, the logP in data set [6] was 1.54. The IC50 turned out to be 9.82 µM in data set [7] and 0.7 µM in data set [8].
Consider `COc1cc(NC(=O)c2ccc(Cl)c(S(=O)(=O)NC(=O)c3ccccc3)c2)cc(OC)c1OC`, for which the inhibition at 10 µM in data set [1] was 2.05%; in data set [2], 32.3%; in data set [3], 29.5%; in data set [5], -27.8%.
For `NS(=O)(=O)c1cccc(C(=O)Nc2ccc(C(F)(F)F)cc2)c1` the same measures were 26.4%, 19.1%, 38.1% and 18.1%.
As for `C/C=C/C(=O)NS(=O)(=O)c1cc(C(=O)Nc2cc(OC)c(OC)c(OC)c2)ccc1Cl`, the inhibition at 10 µM was found to be 18.4% in data set [1], 29.3% in data set [2], 24.6% in data set [3] and 11.7% in data set [5].

The values above are taken from ChEMBL document CHEMBL4811240, “Discovery of N-substituted sulfamoylbenzamide derivatives as novel inhibitors of STAT3 signaling pathway based on Niclosamide” (Eur J Med Chem, 2021).
